This is an account of results in US20220289727A1, “ENZYME INHIBITORS” (KALVISTA PHARMACEUTICALS LIMITED, priority 2019, published 2022).

One assay concerns the target T1, Human Factor XIIa (Homo sapiens, UniProt P00748).
T1 construct: Human Factor XIIa (Enzyme Research Laboratories) was incubated; purchased Enzyme Research Laboratories
T1 sequence (P00748 373-615 limits assumed): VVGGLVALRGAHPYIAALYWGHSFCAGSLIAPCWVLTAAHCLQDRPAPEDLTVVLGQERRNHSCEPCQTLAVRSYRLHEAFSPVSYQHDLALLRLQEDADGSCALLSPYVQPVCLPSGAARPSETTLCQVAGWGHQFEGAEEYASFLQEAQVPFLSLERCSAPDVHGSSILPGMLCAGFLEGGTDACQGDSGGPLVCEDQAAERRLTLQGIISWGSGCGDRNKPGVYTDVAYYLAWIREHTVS
T1 sequence (P00748 20-372 partner limits assumed): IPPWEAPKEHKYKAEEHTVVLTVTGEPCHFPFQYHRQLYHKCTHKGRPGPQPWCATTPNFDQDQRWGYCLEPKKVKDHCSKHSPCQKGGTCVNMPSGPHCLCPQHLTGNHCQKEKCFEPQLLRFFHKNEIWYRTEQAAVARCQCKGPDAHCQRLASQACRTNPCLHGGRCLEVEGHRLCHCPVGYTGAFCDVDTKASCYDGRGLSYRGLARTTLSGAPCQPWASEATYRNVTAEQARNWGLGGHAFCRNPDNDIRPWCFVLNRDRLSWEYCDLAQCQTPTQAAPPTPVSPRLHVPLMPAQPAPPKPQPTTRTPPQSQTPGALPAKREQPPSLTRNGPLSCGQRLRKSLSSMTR
Kind of assay: Determination of FXIIa inhibitory activity in vitro (fluorogenic substrate H-DPro-Phe-Arg-AFC). As to conditions: 25° C., residual enzyme activity (initial rate). The format is biochemical.

Another assay deals with T2, Human FXIa (Homo sapiens, UniProt P03951).
T2 construct: Human FXIa (Enzyme Research Laboratories) was incubated; purchased Enzyme Research Laboratories
Kind of assay: Determination of FXIa inhibitory activity in vitro (fluorogenic substrate Z-Gly-Pro-Arg-AFC). The format is biochemical. As to conditions: selectivity, 25° C., residual enzyme activity (initial rate).

Each structure is given as a SMILES string.

T2 sequence (P03951 388-625 limits assumed): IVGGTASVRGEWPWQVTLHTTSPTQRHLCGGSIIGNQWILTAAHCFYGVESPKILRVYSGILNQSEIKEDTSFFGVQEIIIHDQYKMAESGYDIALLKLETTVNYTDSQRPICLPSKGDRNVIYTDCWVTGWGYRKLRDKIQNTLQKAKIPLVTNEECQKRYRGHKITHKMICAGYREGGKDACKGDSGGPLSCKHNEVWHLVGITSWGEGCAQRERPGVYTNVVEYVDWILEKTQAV
T2 sequence (P03951 19-387 partner limits assumed): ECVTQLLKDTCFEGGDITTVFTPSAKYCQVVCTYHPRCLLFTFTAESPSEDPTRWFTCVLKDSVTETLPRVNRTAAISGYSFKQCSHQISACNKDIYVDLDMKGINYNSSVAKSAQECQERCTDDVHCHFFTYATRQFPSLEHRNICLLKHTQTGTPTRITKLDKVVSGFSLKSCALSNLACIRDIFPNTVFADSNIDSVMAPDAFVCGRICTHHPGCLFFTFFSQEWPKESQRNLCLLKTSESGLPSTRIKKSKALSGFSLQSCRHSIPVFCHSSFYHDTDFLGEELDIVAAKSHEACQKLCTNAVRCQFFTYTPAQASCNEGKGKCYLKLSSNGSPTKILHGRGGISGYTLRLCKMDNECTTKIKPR

Turning to `CC(C)(C)OC(=O)N1CCC(Cn2nc(Cl)cc2C(=O)NCc2ccc3c(N)nccc3c2)CC1` [Example 35.01], the figures for the concentration for half-maximal inhibition (IC50) at Human Factor XIIa and against Human FXIa were 10 to 40 µM and greater than 40 µM, respectively.

`Nc1nccc2cc(CNC(=O)c3cc(Cl)c(CN4CCN(c5ccccn5)CC4)s3)ccc12` [Example 5.17]: the IC50 was 10 to 40 µM against Human Factor XIIa and greater than 40 µM against Human FXIa.

Take `Nc1nccc2cc(CNC(=O)c3cc(C4CC4)nn3CC3CCN(c4ccncc4)CC3)ccc12` [Example 35.05]: the values for the IC50 on Human Factor XIIa and against Human FXIa were 3 to 10 µM and 31.7 µM, respectively.

As to `Cc1cc(C(=O)NCc2ccc3c(N)nccc3c2)sc1CN1CCN(c2ccncc2)CC1` [Example 5.20, N-[(1-Amino-6-isoquinolyl)methyl]-4-methyl-5-[[4-(4-pyridyl)piperazin-1-yl]methyl]thiophene-2-carboxamide], the half-maximal inhibitory concentration (IC50) against Human Factor XIIa is 10 to 40 µM; at Human FXIa, greater than 40 µM.

For the molecule `CN1CCC(CNc2nccc3c2C(=O)N(Cc2ccc4c(N)nccc4c2)C3)CC1` [Example 82.01, 2-((1-Aminoisoquinolin-6-yl)methyl)-4-(((1-methylpiperidin-4-yl)methyl)amino)-1,2-dihydro-3H-pyrrolo[3,4-c]pyridin-3-one], the IC50 at Human Factor XIIa was 10 to 40 µM; on Human FXIa, greater than 40 µM.

Consider `CN1CCC(CCn2nccc2C(=O)NCc2ccc3c(N)nccc3c2)CC1` [Example 35.07], for which the IC50 on Human Factor XIIa is 1 to 3 µM; against Human FXIa, greater than 40 µM.

`Cc1cc(C(=O)NCc2ccc3c(N)nccc3c2)sc1CN1CC(Oc2ccncc2)C1` [Example 5.25, N-[(1-Amino-6-isoquinolyl)methyl]-4-methyl-5-[[3-(4-pyridyloxy)azetidin-1-yl]methyl]thiophene-2-carboxamide]: the half-inhibitory concentration (IC50) against Human Factor XIIa is 10 to 40 µM; against Human FXIa it was greater than 40 µM.

With `Nc1nccc2cc(CNC(=O)c3cc(Cl)c(CNCC4CCN(c5ccncc5)CC4)s3)ccc12` [Example 2.36, N-[(1-Aminoisoquinolin-6-yl)methyl]-4-chloro-5-[({[1-(pyridin-4-yl)piperidin-4-yl]methyl}amino)methyl]thiophene-2-carboxamide], the IC50 against Human Factor XIIa is 1 to 3 µM; against Human FXIa, 76.4 µM.

For `Nc1nccc2cc(CNC(=O)c3cc(Cl)c(CN4CCc5ccncc5C4)s3)ccc12` [Example 5.22], the IC50 at Human Factor XIIa is 3 to 10 µM; at Human FXIa, greater than 40 µM.

As to `Cc1cc(C(=O)NCc2ccc3c(N)nccc3c2)sc1CN1CCN(c2ccncn2)CC1` [Example 5.26, N-((1-Aminoisoquinolin-6-yl)methyl)-4-methyl-5-((4-(pyrimidin-4-yl)piperazin-1-yl)methyl) thiophene-2-carboxamide], the values for the concentration for half-maximal inhibition (IC50) against Human Factor XIIa and at Human FXIa were 10 to 40 µM and greater than 40 µM, respectively.

Take `CCc1cc(C(=O)NCc2ccc3c(N)nccc3c2)sc1CN1CCN(c2ccncc2)CC1` [Example 51.03]: the figures for the IC50 on Human Factor XIIa and on Human FXIa were 3 to 10 µM and 20.5 µM, respectively.

With `Cc1cc(C(=O)NCc2ccc3c(N)nccc3c2)n(CC2CCN(c3ccncc3)CC2)n1` [Example 35.06], the half-maximal inhibitory concentration (IC50) against Human Factor XIIa is 10 to 40 µM; against Human FXIa it was greater than 40 µM.

As for `Nc1nccc2cc(CNC(=O)c3cc4c(Cl)cccc4s3)ccc12` [Example 25.203, N-((1-Aminoisoquinolin-6-yl)methyl)-4-chlorobenzo[b]thiophene-2-carboxamide], the IC50 at Human Factor XIIa was 1 to 3 µM; at Human FXIa, greater than 40 µM.

On to `Cc1cc(OCC2CCN(C)CC2)c(C(=O)NCc2ccc3c(N)nccc3c2)s1` [Example 26.04], for which the IC50 on Human Factor XIIa was 10 to 40 µM; against Human FXIa, greater than 40 µM.

Regarding `Nc1nccc2cc(CNC(=O)c3cc(Cl)c(CN4CC[C@@H](Nc5cccnc5)C4)s3)ccc12` [Example 5.18, N-[(1-Amino-6-isoquinolyl)methyl]-4-chloro-5-[[(3R)-3-(3-pyridylamino)pyrrolidin-1-yl]methyl]thiophene-2-carboxamide], the half-maximal inhibitory concentration (IC50) is 10 to 40 µM on Human Factor XIIa and 37.7 µM on Human FXIa.

With `Nc1nccc2cc(CNC(=O)c3cc(Cl)c(CN4CC[C@H](Nc5cccnc5)C4)s3)ccc12` [Example 5.21], the results for the 50% inhibitory concentration (IC50) against Human Factor XIIa and against Human FXIa were 10 to 40 µM and greater than 40 µM, respectively.

As to `Cc1sc(C(=O)NCc2ccc3c(N)nccc3c2)c(NCC2CCN(C)CC2)c1Cl` [Example 26.10, N-((1-Aminoisoquinolin-6-yl)methyl)-4-chloro-5-methyl-3-(((1-methylpiperidin-4-yl)methyl)amino) thiophene-2-carboxamide], the figures for the IC50 at Human Factor XIIa and against Human FXIa were 1 to 3 µM and greater than 40 µM, respectively.

As for `Cc1cc(C(=O)NCc2ccc3c(N)nccc3c2)sc1CN1CCCN(c2ccncc2)CC1` [Example 5.24, N-((1-Aminoisoquinolin-6-yl)methyl)-4-methyl-5-((4-(pyridin-4-yl)-1,4-diazepan-1-yl)methyl) thiophene-2-carboxamide], the figures for the IC50 at Human Factor XIIa and on Human FXIa were 3 to 10 µM and greater than 40 µM, respectively.

The IC50 is the point on the concentration scale where inhibition reaches its midpoint.
